Reference: patent US6737383B1, “Herbicidal oxadiazolidines” (priority 1999, dated 2004)

Assays:
Conditions in all cases: Preemergence
[1] = test system: corn; assay: Test B pre/postemergence corn; assay type: in vivo, Zea mays
Outline: (§1)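 Herbicidal effect was estimated by eye on a ten-point control scale after plants spent twelve to sixteen days in a greenhouse following soil or foliar treatment. Foliar sprays targeted plants at one to four leaves; all doses were formulated in a non-phytotoxic solvent with surfactant.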

[2] = test system: crabgrass; assay: Test B pre/postemergence crabgrass; assay type: in vivo, Digitaria sanguinalis
Outline: as §1

[3] = test system: rape; assay: Test B pre/postemergence rape; assay type: in vivo, Brassica napus
Outline: as §1

[4] = test system: soybean; assay: Test B pre/postemergence soybean; assay type: in vivo, Glycine max
Outline: as §1

[5] = test system: giant foxtail; assay: Test B pre/postemergence giant foxtail; assay type: in vivo, Setaria faberii
Outline: as §1

[6] = test system: bedstraw; assay: Test B pre/postemergence bedstraw; assay type: in vivo, Galium aparine
Outline: as §1

[7] = test system: wild oat; assay: Test B pre/postemergence wild oat; assay type: in vivo, Avena fatua
Outline: as §1

[8] = test system: cocklebur; assay: Test B pre/postemergence cocklebur; assay type: in vivo, Xanthium strumarium
Outline: as §1

[9] = test system: purple nutsedge; assay: Test B pre/postemergence purple nutsedge; assay type: in vivo, Cyperus rotundus
Outline: as §1

[10] = test system: blackgrass; assay: Test B pre/postemergence blackgrass; assay type: in vivo, Alopecurus myosuroides
Outline: as §1

[11] = test system: velvetleaf; assay: Test B pre/postemergence velvetleaf; assay type: in vivo, Abutilon theophrasti
Outline: as §1

[12] = test system: pigweed; assay: Test B pre/postemergence pigweed; assay type: in vivo, Amaranthus retroflexus
Outline: as §1

[13] = test system: sugar beet; assay: Test B pre/postemergence sugar beet; assay type: in vivo, Beta vulgaris
Outline: as §1

[14] = test system: surinam grass; assay: Test B pre/postemergence surinam grass; assay type: in vivo, Brachiaria decumbens
Outline: as §1

[15] = test system: wheat; assay: Test B pre/postemergence wheat; assay type: in vivo, Triticum aestivum
Outline: as §1

[16] = test system: morningglory; assay: Test B pre/postemergence morningglory; assay type: in vivo, Ipomoea hederacea
Outline: as §1

[17] = Rate 125 g/ha, scale of 0 to 10 where 0 is no effect and 10 is complete control
[18] = Rate 250 g/ha, scale 0 (no effect) to 10 (complete control)
[19] = Rate 500 g/ha, scale 0 to 10 (0 no effect, 10 complete control)
[20] = Rate 1000 g/ha, scale 0 to 10 (0 no effect, 10 complete control)

## COC(=O)C(c1ccccc1)n1c(=O)on(C(=O)N(c2ccccc2)C(C)C)c1=O (stereo not drawn) [Compound 723]
[1]; [17]
  Plant response rating, Corn: 0
[1]; [18]
  Corn plant response rating: 0
[1]; [19]
  Corn plant response rating: 0
[1]; [20]
  Plant response rating, Corn: 0
[2]; [17]
  Plant response rating, Crabgrass: 2
[2]; [18]
  Crabgrass plant response rating: 2
[2]; [19]
  Crabgrass plant response rating: 9
[2]; [20]
  Plant response rating, Crabgrass: 9
[3]; [17]
  Plant response rating, Rape: 0
[3]; [18]
  Rape plant response rating: 0
[3]; [19]
  Rape plant response rating: 0
[3]; [20]
  Plant response rating, Rape: 2
[4]; [17]
  Plant response rating, Soybean: 0
[4]; [18]
  Soybean plant response rating: 0
[4]; [19]
  Soybean plant response rating: 0
[4]; [20]
  Plant response rating, Soybean: 0
[5]; [17]
  Plant response rating, Giant foxtail: 7
[5]; [18]
  Giant foxtail plant response rating: 9
[5]; [19]
  Giant foxtail plant response rating: 10
[5]; [20]
  Plant response rating, Giant foxtail: 10
[6]; [17]
  Plant response rating, Bedstraw: 0
[6]; [18]
  Bedstraw plant response rating: 0
[6]; [19]
  Bedstraw plant response rating: 0
[6]; [20]
  Plant response rating, Bedstraw: 0
[7]; [17]
  Plant response rating, Wild oats: 0
[7]; [18]
  Wild oats plant response rating: 0
[7]; [19]
  Wild oats plant response rating: 0
[7]; [20]
  Plant response rating, Wild oats: 8
[8]; [17]
  Plant response rating, Cocklebur: 0
[8]; [18]
  Cocklebur plant response rating: 0
[8]; [19]
  Cocklebur plant response rating: 0
[8]; [20]
  Plant response rating, Cocklebur: 0
[9]; [17]
  Plant response rating, Nutsedge: 0
[9]; [18]
  Nutsedge plant response rating: 0
[9]; [20]
  Plant response rating, Nutsedge: 0
[10]; [17]
  Plant response rating, Blackgrass: 0
[10]; [18]
  Blackgrass plant response rating: 0
[10]; [19]
  Blackgrass plant response rating: 2
[10]; [20]
  Plant response rating, Blackgrass: 6
[11]; [17]
  Plant response rating, Velvetleaf: 0
[11]; [18]
  Velvetleaf plant response rating: 0
[11]; [19]
  Velvetleaf plant response rating: 0
[11]; [20]
  Plant response rating, Velvetleaf: 0
[12]; [17]
  Plant response rating, Redroot pigweed: 0
[12]; [18]
  Redroot pigweed plant response rating: 0
[12]; [19]
  Redroot pigweed plant response rating: 0
[12]; [20]
  Plant response rating, Redroot pigweed: 5
[13]; [17]
  Plant response rating, Sugarbeets: 0
[13]; [18]
  Sugarbeets plant response rating: 0
[13]; [19]
  Sugarbeets plant response rating: 0
[13]; [20]
  Plant response rating, Sugarbeets: 0
[14]; [17]
  Plant response rating, B. signalgrass: 0
[14]; [18]
  B. signalgrass plant response rating: 2
[14]; [19]
  B. signalgrass plant response rating: 2
[14]; [20]
  Plant response rating, B. signalgrass: 6
[15]; [17]
  Plant response rating, Wheat: 0
[15]; [18]
  Wheat plant response rating: 0
[15]; [19]
  Wheat plant response rating: 0
[15]; [20]
  Plant response rating, Wheat: 0
[16]; [17]
  Plant response rating, Morningglory: 0
[16]; [18]
  Morningglory plant response rating: 0
[16]; [19]
  Morningglory plant response rating: 0
[16]; [20]
  Plant response rating, Morningglory: 0
